Measured values taken from US7348350B2, “Pyrazolyl biphenyl carboxamides and the use thereof for controlling undesirable microorganisms” (Bayer CropScience AG, priority 2000, dated 2008).
Each block holds one molecule with its values, some of them ahead of it.

What was measured:
Alternaria solani = assay: Alternaria test (tomato)/protective; format: in vivo; conditions: protective, application rate 750 g/ha, evaluation 7 days after inoculation
Procedure: (§1) To produce a suitable preparation of active compound, 1 part by weight of active compound is mixed with the stated amounts of solvent and emulsifier, and the concentrate is diluted with water to the desired concentration.
To test for protective activity, young tomato plants are sprayed with the preparation of active compound at the stated application rate. 1 day after the treatment, the plants are inoculated with a spore suspension of Alternaria solani and then remain at 100% rel. humidity and 20° C. for 24 h. The plants then remain at 96% rel. atmospheric humidity and a temperature of 20° C.
Evaluation is carried out 7 days after the inoculation. 0% means an efficacy which corresponds to that of the control, whereas an efficacy of 100% means that no infection is observed.

[1] = logP by HPLC on reversed-phase column (C 18), EEC Directive 79/831 Annex V.A8; format: physicochemical; conditions: reversed-phase HPLC column (C 18)
Procedure: The logP values given in the Preparation Examples and Tables above were determined in accordance with EEC Directive 79/831 Annex V.A8 by HPLC (High Performance Liquid Chromatography) on a reversed-phase column (C 18). Temperature: 43° C.
In the acidic range, the determination was carried out at pH 2.3 using the mobile phases 0.1% aqueous phosphoric acid and acetonitrile; linear gradient from 10% acetonitrile to 90% acetonitrile (marked ^a) in the Table).
In the neutral range, the determination was carried out at pH 7.5 using the mobile phases 0.01 molar aqueous phosphate buffer solution and acetonitrile; linear gradient from 10% acetonitrile to 90% acetonitrile (marked ^b) in the Table).

Podosphaera leucotricha = assay: Podosphaera test (apple)/protective; format: in vivo; conditions: 240 h, protective, application rate 100 g/ha, evaluation 10 days after inoculation, read-out: % efficacy
Procedure: as §1
(§2) To test for protective activity, young plants are sprayed with the preparation of active compound at the stated application rate. After the spray coating has dried on, the plants are inoculated with an aqueous spore suspension of the apple mildew pathogen Podosphaera leucotricha. The plants are then placed in a greenhouse at approximately 23° C. and a relative atmospheric humidity of approximately 70%.
(§3) Evaluation is carried out 10 days after the inoculation. 0% means an efficacy which corresponds to that of the control, whereas an efficacy of 100% means that no infection is observed.

Venturia inaequalis = assay: Venturia test (apple)/protective; format: in vivo; conditions: 288 h, protective, application rate 100 g/ha, evaluation 12 days after inoculation, read-out: % efficacy
Procedure: To produce a suitable preparation of active compound, 1 part by weight of active compound is mixed with the stated amount of solvent and emulsifier, and the concentrate is diluted with water to the desired concentration.
To test for protective activity, young plants are sprayed with the preparation of active compound at the stated application rate. After the spray coating has dried on, the plants are inoculated with an aqueous conidia suspension of the apple scab pathogen Venturia inaequalis and then remain in an incubation cabin at approximately 20° C. and 100% relative atmospheric humidity for 1 day.
The plants are then placed in a greenhouse at approximately 21° C. and a relative atmospheric humidity of approximately 90%.
Evaluation is carried out 12 days after the inoculation. 0% means an efficacy which corresponds to that of the control, whereas an efficacy of 100% means that no infection is observed.

Sphaerotheca fuiginea = assay: Sphaerotheca test (cucumber)/protective; format: in vivo; conditions: Cucumis sativus, 240 h, protective, application rate 100 g/ha, evaluation 10 days after inoculation, read-out: % efficacy
Procedure: as §1
as §2, with “Sphaerotheca fuiginea.” for “the apple mildew pathogen Podosphaera leucotricha.”
as §3

Puccinia recondita = assay: Puccinia test (wheat)/protective; format: in vivo; conditions: protective, application rate 250 g/ha, evaluation 10 days after inoculation
Procedure: as §1
To test for protective activity, young plants are sprayed with the preparation of active compound at the stated application rate. After the spray coating has dried on, the plants are sprayed with a conidia suspension of Puccinia recondita. The plants remain in an incubation cabin at 20° C. and 100% relative atmospheric humidity for 48 hours.
The plants are then placed in a greenhouse at a temperature of approximately 20° C. and a relative atmospheric humidity of 80% to promote the development of rust pustules.
as §3

[2] = acidic range, pH 2.3, 0.1% aqueous phosphoric acid and acetonitrile, 43° C. (marked a)

Compound: CO/N=C/c1ccc(-c2cc(F)cc(F)c2NC(=O)c2c(C)nn(C)c2F)cc1 [Example 2, N-{3,5-difluoro-4′-[(methoxyimino)methyl]-1,1′-biphenyl-2-yl}-5-fluoro-1,3-dimethyl-1H-pyrazole-4-carboxamide]
% efficacy (Alternaria solani): 90%

Compound: CO/N=C/c1cccc(-c2ccccc2NC(=O)c2c(C)nn(C)c2F)c1 [Example 5]
% efficacy (Alternaria solani): 90%

chromatographic logP [1, 2]: 3.2
Compound: CO/N=C(\C)c1cccc(-c2ccccc2NC(=O)c2c(C)nn(C)c2F)c1 [Example 7]
% efficacy (Alternaria solani): 100%

chromatographic logP [1, 2]: 3.39
Compound: CO/N=C/c1ccc(-c2ccc(F)cc2NC(=O)c2c(C)nn(C)c2F)cc1 [Example 8]
pest or weed control at 100 g/ha (Podosphaera leucotricha): 98% | pest or weed control at 100 g/ha (Venturia inaequalis): 99%

chromatographic logP [1, 2]: 3.26
Compound: CO/N=C/c1ccc(-c2ccccc2NC(=O)c2c(C)nn(C)c2F)c(Cl)c1 [Example 10]

chromatographic logP [1, 2]: 3.05
Compound: CCO/N=C/c1ccc(-c2cc(F)cc(F)c2NC(=O)c2c(C)nn(C)c2F)cc1 [Example 11]
pest or weed control at 100 g/ha (Sphaerotheca fuiginea): 93% | pest or weed control at 100 g/ha (Podosphaera leucotricha): 100% | pest or weed control at 100 g/ha (Venturia inaequalis): 100%

chromatographic logP [1, 2]: 1.75
Compound: Cc1nn(C)c(F)c1C(=O)Nc1ccccc1-c1ccc(/C=N/OCc2cccnc2)cc1 [Example 12]

chromatographic logP [1, 2]: 4.02
Compound: Cc1nn(C)c(F)c1C(=O)Nc1ccccc1-c1ccc(/C=N/OCc2ccccc2)cc1 [Example 13]

chromatographic logP ([1]; neutral range, pH 7.5, 0.01 molar aqueous phosphate buffer and acetonitrile, 43° C. (marked b)): 3.68
Compound: Cc1nn(C)c(F)c1C(=O)Nc1c(F)cc(F)cc1-c1ccc(/C=N/OCc2ccccc2)cc1 [Example 14]

chromatographic logP [1, 2]: 1.81
Compound: Cc1nn(C)c(F)c1C(=O)Nc1c(F)cc(F)cc1-c1ccc(/C=N/OCc2ccccn2)cc1 [Example 15]

chromatographic logP [1, 2]: 1.72
Compound: Cc1nn(C)c(F)c1C(=O)Nc1ccccc1-c1ccc(/C=N/OCc2ccncc2)cc1 [Example 16]

chromatographic logP [1, 2]: 1.89
Compound: Cc1nn(C)c(F)c1C(=O)Nc1ccccc1-c1ccc(/C=N/OCc2ccccn2)cc1 [Example 17]

chromatographic logP [1, 2]: 1.69
Compound: Cc1nn(C)c(F)c1C(=O)Nc1c(F)cc(F)cc1-c1ccc(/C=N/OCc2cccnc2)cc1 [Example 18]

chromatographic logP [1, 2]: 1.6
Compound: Cc1nn(C)c(F)c1C(=O)Nc1c(F)cc(F)cc1-c1ccc(/C=N/OCc2ccncc2)cc1 [Example 19]

Compound: C/C(=N\OC(C)C)c1ccc(-c2ccccc2NC(=O)c2c(C)nn(C)c2F)cc1 [Example 20]
pest or weed control at 100 g/ha (Sphaerotheca fuiginea): 77% | pest or weed control at 100 g/ha (Podosphaera leucotricha): 95% | % efficacy (Puccinia recondita): 100% | pest or weed control at 100 g/ha (Venturia inaequalis): 100%

Compound: CCO/N=C(\C)c1ccc(-c2ccccc2NC(=O)c2c(C)nn(C)c2F)cc1 [Example 22]
pest or weed control at 100 g/ha (Sphaerotheca fuiginea): 95% | pest or weed control at 100 g/ha (Podosphaera leucotricha): 99% | % efficacy (Puccinia recondita): 100% | pest or weed control at 100 g/ha (Venturia inaequalis): 100%

Compound: Cc1nn(C)c(F)c1C(=O)Nc1ccccc1-c1ccc(/C=N/OC(C)C)cc1 [Example 23]
pest or weed control at 100 g/ha (Sphaerotheca fuiginea): 95% | pest or weed control at 100 g/ha (Podosphaera leucotricha): 100% | pest or weed control at 100 g/ha (Venturia inaequalis): 100%

chromatographic logP [1, 2]: 3.38
Compound: Cc1nn(C)c(F)c1C(=O)Nc1ccccc1-c1ccc(/C=N/OCCCl)cc1 [Example 25]

chromatographic logP [1, 2]: 3.4
Compound: CO/N=C/c1ccc(-c2ccccc2NC(=O)c2c(C)nn(C)c2F)c(C)c1 [Example 26]
pest or weed control at 100 g/ha (Sphaerotheca fuiginea): 95% | pest or weed control at 100 g/ha (Podosphaera leucotricha): 100% | % efficacy (Puccinia recondita): 100% | pest or weed control at 100 g/ha (Venturia inaequalis): 100%

chromatographic logP [1, 2]: 3.15
Compound: CO/N=C/c1ccc(-c2ccccc2NC(=O)c2c(C)nn(C)c2F)cc1OC [Example 27]

chromatographic logP [1, 2]: 3.67
Compound: CO/N=C/c1ccc(-c2cc(Cl)ccc2NC(=O)c2c(C)nn(C)c2F)cc1 [Example 28]

chromatographic logP [1, 2]: 3.39
Compound: CO/N=C/c1ccc(-c2c(C)cccc2NC(=O)c2c(C)nn(C)c2F)cc1 [Example 29]
pest or weed control at 100 g/ha (Sphaerotheca fuiginea): 83% | pest or weed control at 100 g/ha (Podosphaera leucotricha): 94% | pest or weed control at 100 g/ha (Venturia inaequalis): 100%

chromatographic logP [1, 2]: 3.34
Compound: CO/N=C/c1ccc(-c2ccc(C)cc2NC(=O)c2c(C)nn(C)c2F)cc1 [Example 31]

chromatographic logP [1, 2]: 3.1
Compound: CO/N=C/c1ccc(-c2ccc(OC)cc2NC(=O)c2c(C)nn(C)c2F)cc1 [Example 32]

chromatographic logP [1, 2]: 3.79
Compound: CO/N=C/c1ccc(-c2ccc(Cl)cc2NC(=O)c2c(C)nn(C)c2F)cc1 [Example 33]

chromatographic logP [1, 2]: 3.74
Compound: CO/N=C/c1ccc(-c2cc(C)c(F)cc2NC(=O)c2c(C)nn(C)c2F)cc1 [Example 34]

chromatographic logP [1, 2]: 3.11
Compound: CO/N=C/c1ccc(-c2cc(Cl)cc(F)c2NC(=O)c2c(C)nn(C)c2F)cc1 [Example 35]

chromatographic logP [1, 2]: 3.48
Compound: CO/N=C/c1ccc(-c2cc(F)c(F)cc2NC(=O)c2c(C)nn(C)c2F)cc1 [Example 36]

chromatographic logP [1, 2]: 3.01
Compound: CO/N=C/c1ccc(-c2cc(F)ccc2NC(=O)c2c(C)nn(C)c2F)cc1 [Example 37]
pest or weed control at 100 g/ha (Sphaerotheca fuiginea): 77% | pest or weed control at 100 g/ha (Podosphaera leucotricha): 100% | pest or weed control at 100 g/ha (Venturia inaequalis): 100%

chromatographic logP [1, 2]: 3.58
Compound: CCO/N=C/c1ccc(-c2ccccc2NC(=O)c2c(C)nn(C)c2F)cc1OC [Example 38]

chromatographic logP [1, 2]: 3.91
Compound: CCO/N=C/c1ccc(-c2ccccc2NC(=O)c2c(C)nn(C)c2F)c(C)c1 [Example 39]
pest or weed control at 100 g/ha (Sphaerotheca fuiginea): 97% | pest or weed control at 100 g/ha (Podosphaera leucotricha): 100% | pest or weed control at 100 g/ha (Venturia inaequalis): 100%

chromatographic logP [1, 2]: 4.63
Compound: CO/N=C/c1ccc(-c2cc(C(F)(F)F)cc(Cl)c2NC(=O)c2c(C)nn(C)c2F)cc1 [Example 40]

chromatographic logP [1, 2]: 3.89
Compound: CO/N=C/c1cccc(-c2ccc(Cl)cc2NC(=O)c2c(C)nn(C)c2F)c1 [Example 41]

chromatographic logP [1, 2]: 4.09
Compound: CO/N=C/c1cccc(-c2ccc(C(F)(F)F)cc2NC(=O)c2c(C)nn(C)c2F)c1 [Example 42]

chromatographic logP [1, 2]: 4.06
Compound: CO/N=C/c1cccc(-c2cc(OC(F)(F)F)ccc2NC(=O)c2c(C)nn(C)c2F)c1 [Example 43]

chromatographic logP [1, 2]: 4.63
Compound: CO/N=C/c1cccc(-c2cc(C(F)(F)F)cc(Cl)c2NC(=O)c2c(C)nn(C)c2F)c1 [Example 44]

chromatographic logP [1, 2]: 3.47
Compound: CO/N=C/c1ccc(-c2ccccc2NC(=O)c2c(C)nn(C)c2F)cc1Cl [Example 46]
pest or weed control at 100 g/ha (Sphaerotheca fuiginea): 100% | pest or weed control at 100 g/ha (Podosphaera leucotricha): 100% | pest or weed control at 100 g/ha (Venturia inaequalis): 100%

chromatographic logP [1, 2]: 3.3
Compound: CO/N=C/c1ccc(-c2ccccc2NC(=O)c2c(C)nn(C)c2F)cc1C [Example 47]
pest or weed control at 100 g/ha (Sphaerotheca fuiginea): 100% | pest or weed control at 100 g/ha (Podosphaera leucotricha): 100% | pest or weed control at 100 g/ha (Venturia inaequalis): 100%

chromatographic logP [1, 2]: 3.25
Compound: CO/N=C\c1cc(-c2ccccc2NC(=O)c2c(C)nn(C)c2F)ccc1/C=N/OC [Example 48]

chromatographic logP [1, 2]: 3.89
Compound: CO/N=C/c1ccc(-c2c(C)cccc2NC(=O)c2c(C)nn(C)c2F)cc1Cl [Example 50]
pest or weed control at 100 g/ha (Sphaerotheca fuiginea): 100% | pest or weed control at 100 g/ha (Podosphaera leucotricha): 100% | pest or weed control at 100 g/ha (Venturia inaequalis): 100%

chromatographic logP [1, 2]: 4.67
Compound: CCC(C)O/N=C(/C)c1ccc(-c2ccccc2NC(=O)c2c(C)nn(C)c2F)cc1 (stereo not shown) [Example 51]

chromatographic logP [1, 2]: 2.24
Compound: Cc1nn(C)c(F)c1C(=O)Nc1ccccc1-c1ccc(/C=N\O)cc1 [Example 53]

chromatographic logP [1, 2]: 4.33
Compound: CCCCO/N=C\c1ccc(-c2ccccc2NC(=O)c2c(C)nn(C)c2F)cc1 [Example 55]
